Test [1] concerns HIF-2α transcriptional activity. Briefly: Hypoxia-responsive element-driven luciferase (HRE-Luc) screen. In kind it is cell-based, human. As to conditions: Homo sapiens, 786-0, 24 h, 786-0 ccRCC cells stably expressing HRE-Luc; 24 h treatment; range of IC50 values. As for the experimental part:
(§1) Screens for inhibitory activity of compounds described herein were performed using 786-0 ccRCC cells that stably express HRE-Luc: 5 copies of the hypoxia-responsive element (HRE) fused to the pGL3 luciferase reporter (Promega Corp, Madison WI). 786-0 cells are pVHL deficient and thus constitutively express HIF-2α independently of cellular oxygen tension. Since 786-0 cells lack HIF-1α, HRE-driven luciferase activity is primarily HIF-2α driven, and has been previously validated. Cells were maintained at log phase growth in […] (DMEM) with 10% FBS in a humidified incubator at 37° C. with 5% CO2. For screening assays, cells were seeded at a density of 4,000 cells in 50 μl of complete media/well in quadruplicate wells/point in a 96-well plate. After 24 h, 50 μl of a 2× concentration of test compound was added to each well. Compounds were diluted from a 5-10 mM stock in DMSO and final concentrations of DMSO in each well in controls and treated wells were kept constant at ≤0.6% DMSO. After 24 h treatment, luciferase activity was measured using the Steady-Glo Luciferase assay system (Promega Corp) according to the manufacturer's protocol. Cell viability was measured in quadruplicate parallel wells using resazurin as recommended by the manufacturer (R&D systems, Minneapolis, MN). Data for luciferase and resazurin were normalized to DMSO treated controls (defining 100%) and wells containing assay reagent but no cells (defining 0%) and graphed using the log inhibitor versus normalized response option in Graphpad Prism 9.3.1 software. Representative data determined using Steady-Glo luciferase and resazurin are shown in FIGS. 1A and 1B respectively, with error bars showing SD. Filled diamonds, empty squares and empty triangles indicate treatment with 3, 8 and 22 respectively with results for HRE-Luc shown in FIG. 1A.

Test [2] has as its system 786-0 cells. The test is described as follows: Resazurin cell viability assay, with or without DFO and other inhibitors. The note with it: for IC50: Homo sapiens, 24 h, resazurin. In kind it is cell-based, human. Here is the method:
as §1
In view of the increased cellular iron concentrations induced by the compounds described herein, the involvement of iron in mediating cell death was determined. Cell viability assays were performed as described in Example 2 using resazurin as a cell viability readout and performed in the absence or presence of 100 μM of the iron chelator, DFO (D9533, MilliporeSigma, St Louis, MO). […] Viability IC50 values are shown in brackets.
Background: Alamar Blue is a resazurin reagent that responds to reducing activity.

Test [3] concerns 786-0 ccRCC cells. The test is described as follows: ICP-MS of cellular iron, zinc and copper. In kind it is cell-based, human. As to conditions: 786-0 cells, 24h. Here is the method:
These studies were performed to determine the content of iron and other transition metals in cells after exposure the compounds described herein. 786-0 cells were seeded at 1.5 million cells/flask in T75 cm^2 flasks in DMEM+10% FBS, and allowed to adhere overnight. Cells were then treated with indicated concentrations of compounds in DMSO or DMSO alone (vehicle) for a further 24 h, after which cells were detached by trypsinization, counted, washed twice in phosphate-buffered saline (PBS) and pelleted. Experiments were performed using three replicate T75 cm^2 flasks per condition. A 5:1 mixture of nitric acid (OPTIMA Grade, 70%, Fisher Scientific) and ultrapure hydrogen peroxide (ULTREX II, 30%, Fisher Scientific) was added to cell pellets. This mixture was allowed to digest overnight, heated until dry, and resuspended in 2% nitric acid for analysis using an Agilent 7900 ICP-MS (Agilent Technologies, Santa Clara, CA). Calibration standard solutions for determination of Fe were prepared from Agilent multi-element calibration standard-2A. An Agilent Environmental Calibration Standard was used as an independent control. PBS-only control digestions were used to measure background. Metal readings were normalized to cell number. Data obtained from these studies for three replicate readings (with SEM) are shown in FIG. 3, which show an increase in cellular iron (Fe) content after treatment with indicated compounds.

The target of test [4] is T1, ISCA2 (Homo sapiens, UniProt Q86U28).
T1 construct: His6 (N); made in house; host or cells: E. coli Rosetta (DE3)
T1 sequence (Q86U28 9-154): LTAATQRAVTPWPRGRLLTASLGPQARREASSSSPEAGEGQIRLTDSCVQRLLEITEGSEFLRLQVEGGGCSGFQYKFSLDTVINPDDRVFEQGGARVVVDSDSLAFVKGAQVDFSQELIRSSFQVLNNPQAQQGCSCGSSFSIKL
The test is described as follows: Thermal shift assay with recombinant ISCA2 (SYPRO Orange). In kind it is binding. Here is the method: Thermal shift assays were performed by monitoring the change in protein melting temperature (Tm) in the absence or presence of test compounds, using the hydrophobic protein binding dye, SYPRO Orange (S6650, Thermo Fisher Scientific), measured using the LightCycler 480 (Roche Life Sciences, Indianapolis, IN) according to the manufacturer's protocol. Recombinant ISCA2 was produced by expressing amino acid residues 9-154 of ISCA2 (ISCA2 lacking its mitochondrial localization sequence) in the pET28 vector containing an N-terminal His6 tag in Rosetta (DE3) competent cells (Novagen, Millipore Sigma). ISCA2 production was induced by treating ISCA2 transformed log phase cells with 0.25 mM IPTG for 4 hours at 18° C. ISCA2 was purified using Ni^2+ affinity purification according to standard protocols and eluted in 50 mM Tris-C1 pH7.4, 150 mM NaCl, 5 mM DTT. Thermal shift assays were performed in 384-well plates using 1 μl of a 10× concentration of SYPRO Orange, 8 μl of ISCA2 (4 μg protein) and 1 μl of 1-2 mM stock of test compound per well. The LightCycler was used according to the following setup: LightCycler 480 Instrument Temperature Setup: First target of 20° C., with a Hold of 15 seconds; second target of 95° C., with Acquisition Mode of Continuous, and 10 acquisitions per degree c.; and third target of 20° C., with a Hold of 15 seconds. Tms were determined using Roche Protein Melting Analysis Software. Representative data are shown in FIGS. 6 and 7 using compound 1 and 26HCL at 200 and 100 µM final concentration respectively. […] These findings are supported by studies showing that re-expression of VHL (which increases ISCA2) and overexpression of ISCA2 itself, promotes the resistance of cells to the compounds (shown in FIG. 8).

Test [5] concerns HIF-1α and HIF-2α. Briefly: Western blots for HIF-1α and HIF-2α in ccRCC cells. As to conditions: 786-0 or RCC10 ccRCC cells, 24h, relative to GAPDH. Format: cell-based, human. Here is the method: (§2) Western blots were performed to determine the effects of the compounds on levels of HIF-2α and other relevant proteins, whereas qPCR was performed to determine the effects of compounds on transcript levels of HIF target genes. 786-0 or RCC10 cells were plated at 1×10E5 cells/well in 2 ml DMEM with 10% FBS/well in 6-well tissue culture plates. Cells were allowed to adhere overnight in a humidified incubator at 37° C. with 5% CO2, after which the appropriate concentrations of compounds in DMSO were added. DMSO concentrations were kept constant in all wells. After 24 h exposure to the compounds, cells were lysed and subjected to western blotting according to standard protocols. Antibodies for HIF-1α and HIF-2α and GAPDH were purchased from Cell Signaling Technology (Danvers, MA), whereas antibodies to IRP2 and pVHL were from Santa Cruz Biotechnology (Dallas, TX), and GPX4 antibody was from R&D Systems, Inc (Minneapolis, MN). Representative data in FIG. 2 show a dose-dependent effect of compounds in decreasing HIF-1/2α. Compounds also impact cellular iron sensing given by increased IRP2, which taken together indicate that cells sense decreased amounts of available iron, which triggers the iron starvation response initiated by IRP2 stabilization. Representative data shown in FIG. 3D show a dose dependent effect of the compounds on GPX4, which may indicate decreased resistance to ferroptosis. […] The data also show increased expression of ISCA2 with pVHL re-expression.

Test [6] concerns IRP2 and GPX4. Briefly: Western blots for cellular iron-sensing machinery (IRP2, GPX4). The note with it: 786-0 or RCC10 ccRCC cells, 24h, relative to GAPDH. Format: cell-based, human. As for the experimental part: as §2

Like-named read-outs stand apart in the source and are kept apart here.

As a reminder, the IC50 is the concentration that gives 50% inhibition. As for `COc1ccc(-c2nnc(Nc3nc4c(OC)nccc4[nH]3)o2)cc1` [Compound 22, N-(4-methoxy-1H-imidazo[4,5-c]73yridine-2-yl)-5-(4-methoxyphenyl)-1,3,4-oxadiazol-2-amine], the 50% inhibitory concentration (IC50) in test [1] is below 10 µM; in test [2] (compound alone, read-out: cell viability IC50) it was 11.4 µM; in test [2] (with DFO 100 μM, read-out: cell viability IC50 in the presence of DFO) it was 83.6 µM. Moreover, the “cellular iron (Fe), zinc (Zn) and copper (Cu) content” value in test [3] was “increases the content of iron, zinc and copper in cells”.

For the compound `COc1cccc2sc(Nc3nnc(-c4ccc(F)cc4)o3)nc12` [Compound 1, 5-(4-fluorophenyl)-N-(4-methoxybenzo[d]thiazol-2-yl)-1,3,4-oxadiazol-2-amine], in test [1], the IC50 was below 10 µM. In test [4] (200 μM compound, control wells 53.21±0.36), the “Tm of ISCA2 in compound-treated wells” value was determined as 55.63±0.26 °C. Also, in test [4] (compound 1 and 26HCL at 200 and 100 μM final concentration respectively), the “change in melting temperature of ISCA2 (in words)” value is recorded as “significant change in melting temperature of ISCA2”. In addition, the “effect on HIF-1α and HIF-2α protein (Western blot)” value in test [5] is “decreases HIF-1α and HIF-2α”. The “effect on IRP2 protein (Western blot)” value in test [6] is recorded as “increases IRP2”.

As to `COc1nccc2[nH]c(Nc3nnc(-c4ccc(F)cc4)o3)nc12` [Compound 3, 5-(4-Fluorophenyl)-N-(4-methoxy-1H-imidazo[4,5-c]pyridin-2-yl)-1,3,4-oxadiazol-2-amine], the half-inhibitory concentration (IC50) in test [1] is below 10 µM. The “effect of DFO co-treatment on compound-mediated loss of cell viability” value in test [2] (DFO 100 μM, FIG. 4B) is “protective effects of DFO”. The “effect on HIF-1α and HIF-2α protein (Western blot)” value in test [5] was “decreases HIF-1α and HIF-2α”. In addition, the “effect on IRP2 protein (Western blot)” value in test [6] was “increases IRP2”. Besides, in test [3], the “cellular iron (Fe), zinc (Zn) and copper (Cu) content” value is “increases the content of iron, zinc and copper in cells”.

`COc1cccc2nc(Nc3nnc(C4CCN(C)CC4)o3)[nH]c12` [Compound 74, N-(7-methoxy-1H-benzo[d]imidazol-2-yl)-5-(1-methylpiperidin-4-yl)-1,3,4-oxadiazol-2-amine] had an IC50 in test [1] of 10 to 50 µM.

In test [1], `COc1cccc2[nH]c(Nc3nnc(-c4ccc5c(c4)OCCO5)o3)nc12` [Compound 86, 5-(2,3-dihydrobenzo[b][1,4]dioxin-6-yl)-N-(4-methoxy-1H-benzo[d]imidazol-2-yl)-1,3,4-oxadiazol-2-amine] registered a half-maximal inhibitory concentration (IC50) of 50 to 100 µM.

`COc1nccc2[nH]c(Nc3nnc(-c4ccc5c(c4)OCO5)o3)nc12` [Compound 27, N-(4-Methoxy-1H-imidazo[4,5-c]pyridin-2-yl)-5-(benzo[d][1,3]dioxol-5-yl)-1,3,4-oxadiazol-2-amine] returned an IC50 in test [1] below 10 µM.

In test [1], `COc1cccc2[nH]c(Nc3nnc(-c4ccc5occc5c4)o3)nc12` [Compound 89, 5-(benzofuran-5-yl)-N-(4-methoxy-1H-benzo[d]imidazol-2-yl)-1,3,4-oxadiazol-2-amine] came in with a concentration for half-maximal inhibition (IC50) above 100 µM.

In the case of `COc1ccc(-c2cnc(Nc3nc4c(OC)nccc4[nH]3)o2)cc1OC` [Compound 59, 5-(3,4-dimethoxyphenyl)-N-(4-methoxy-1H-imidazo[4,5-c]pyridin-2-yl)oxazol-2-amine], the half-maximal inhibitory concentration (IC50) in test [1] is 50 to 100 µM.

Values taken from patent US20250346588A1, “IMIDAZOPYRIDINE AND OXAZOLOPYRIDINE DERIVATIVES AND ANALOGS THEREOF, METHODS OF PREPARATION THEREOF, METHODS OF HIF-1/2A PATHWAY INHIBITION, AND INDUCTION OF FERROPTOSIS” (KUDA THERAPEUTICS, INC., priority 2022, published 2025).
